Results reported in patent US7510836B2, “Alpha arteether resistance domain” (priority 2003, dated 2009).
≈ marks a conversion by molar mass, not a printed value.

Legend:
[1] = test system: E. coli mutant strain Rev 4; test: Phenotype of revertant (resistance or sensitivity); assay type: cell-based, Escherichia coli; set-up: key: R: resistance; S: sensitivity; conditions: gyrA GAT-GGT(242), Asp-Gly 81
Description: (§1) The strains of E coli of the investigation, their phenotypes in terms of a-arteether (resistance or sensitivity, superscript R or S) or antibiotic resistance or sensitivity, change in nucleotide position of the gyrase A gene leading to the phenotype, corresponding amino acid change in the protein and the position of amino acid change are being described. Always the phenotype a-arteether resistance is accompanied with quinolone or fluoroquinolone sensitivity and vice versa.
(§2) The commercially available strain E. coli DH5[…] (Stratagene, USA) is sensitive to […]-arteether but resistant to quinolone/fluoroquinolone due to a mutation at 87th aminoacid position of the gyr A protein (Aspartic acid of wild type is changed to Aspargine) with corresponding change in the codon GAC to AAC. This strain was used to screen […]-arteether resistant mutations. The observation was startling as the […]-arteether resistant mutants are the exact reversion at the 87th position of the aminoacid of gyrase A subunit i.e. Aspargine changed to aspartic acid, with corresponding change in the codon AAC to GAC.

[2] = test system: E. coli mutant strain Rev. 1; test: Phenotype of revertant (resistance or sensitivity); assay type: cell-based, Escherichia coli; set-up: key: R: resistance; S: sensitivity; conditions: gyrA GAT-GGT(242), Asp-Gly 81
Description: as §1, §2

[3] = test system: E. coli mutant strain Rev 5; test: Phenotype of revertant (resistance or sensitivity); assay type: cell-based, Escherichia coli; set-up: key: R: resistance; S: sensitivity; conditions: gyrA GAT-GGT(242), Asp-Gly 81
Description: as §1, §2

[4] = test system: E. coli mutant strain Rev. 2; test: Phenotype of revertant (resistance or sensitivity); assay type: cell-based, Escherichia coli; set-up: key: R: resistance; S: sensitivity; conditions: gyrA GAT-GGT(242), Asp-Gly 81
Description: as §1, §2

[5] = test system: E. coli mutant strain Rev. 3; test: Phenotype of revertant (resistance or sensitivity); assay type: cell-based, Escherichia coli; set-up: key: R: resistance; S: sensitivity; conditions: gyrA GAT-GGT(242), Asp-Gly 81
Description: as §1, §2

[6] = test system: E. coli mutant strain Rev 6; test: Phenotype of revertant (resistance or sensitivity); assay type: cell-based, Escherichia coli; set-up: key: R: resistance; S: sensitivity; conditions: gyrA GAT-GGT(242), Asp-Gly 81
Description: as §1, §2

[7] = test system: E. coli ET8000; test: Minimum inhibitory concentration (cross resistance); assay type: cell-based; conditions: Escherichia coli; strain ET8000
Description: (§3) The minimum inhibitory concentrations (MIC) of the quinolone and fluoroquinolone antibiotics were quantified for different strains and compared among each other. The differential response indicate the measure of resistance and sensitivity. Higher MIC indicate more resistance.

[8] = test system: E. coli CA8000; test: as above; assay type: cell-based; conditions: Escherichia coli; strain CA8000
Description: as §3

[9] = test system: E. coli DH5a; test: as above; assay type: cell-based; conditions: Escherichia coli; strain DH5a
Description: as §3

[10] = test system: E. coli NK5819; test: as above; assay type: cell-based; conditions: Escherichia coli; strain NK5819
Description: as §3

[11] = test system: E. coli CA8012; test: Phenotype of strain (resistance or sensitivity); assay type: cell-based, Escherichia coli; set-up: key: R: resistance; S: sensitivity; conditions: gyrA GGT-GAT(242), Gly-Asp 81
Description: (§4) In order to develop an arteether resistant mutants from an arteether sensitive strains a reverse strategy was applied. Quinoline/fluoroquinolone (Q/FQs) resistant strains were developed spontaneously i.e. screening overnight log phase culture of the Quinolone/fluoroquinolone sensitive i.e. arteether resistant strain (E coli CA 8000) on the poison agar plate of the Q/FQs. The Q/FQ resistant mutants which appeared on the poison agar plates were first purified through single colony purification and then checked for their arteether sensitivity. These arteether sensitive mutants on the contrary when checked for their Q/Fqs resistance they show different level of Q/FQs resistance.
as §1

[12] = test system: E. coli mutant CA8005; test: Minimum inhibitory concentration (cross resistance); assay type: cell-based; conditions: Escherichia coli; strain CA8005
Description: as §4, §3

[13] = test system: E. coli mutant CA8007; test: as above; assay type: cell-based; conditions: Escherichia coli; strain CA8007
Description: as §4, §3

[14] = test system: E. coli mutant CA8001; test: as above; assay type: cell-based; conditions: Escherichia coli; strain CA8001
Description: as §4, §3

[15] = test system: E. coli mutant CA8006; test: as above; assay type: cell-based; conditions: Escherichia coli; strain CA8006
Description: as §4, §3

[16] = test system: E. coli mutant CA8003; test: as above; assay type: cell-based; conditions: Escherichia coli; strain CA8003
Description: as §4, §3

[17] = test system: E. coli mutant CA80012; test: as above; assay type: cell-based; conditions: Escherichia coli, read-out: minimum inhibitory concentration (MIC)
Description: as §4, §3

[18] = test system: E. coli mutant CA80010; test: as above; assay type: cell-based; conditions: Escherichia coli, read-out: minimum inhibitory concentration (MIC)
Description: as §4, §3

[19] = test system: E. coli mutant CA8002; test: as above; assay type: cell-based; conditions: Escherichia coli; strain CA8002
Description: as §4, §3

[20] = test system: E. coli mutant CA8009; test: as above; assay type: cell-based; conditions: Escherichia coli; strain CA8009
Description: as §4, §3

[21] = test system: E. coli NK5819; test: Phenotype of strain (resistance or sensitivity); assay type: cell-based, Escherichia coli; set-up: key to Phenotype: R: resistance; S: sensitivity
Experimental: (§5) To ascertain the involvement of gyrA mutation, another E.coli strain NK 5819 which is also GyrA″ and nalidixic acid resistant was tested for arteether sensitivity. As expected, strain NK5819 was also sensitive only to a-isomer of arteether. […] The assays for arteether sensitivity was performed by the standard single disk diffusion method (Bauer et al, 1966). As a next step, we isolated gyrA mutants of E.coli strain CA 8000, which is otherwise Gyr+ and nalidixic acid sensitive. The gyrA mutants of CA8000 were isolated as nalidixic acid resistant colonies (20 ug/ml), after mutagenic treatment with NTG ([…]). The isolated CA8000 gyrA mutants were also sensitive only to a isomer of arteether. […] To define precisely the involvement of gyr genes only in the a-arteether sensitivity, we utilised two recombinant clones (pMK 90 and pMK47 containing functional gyr A and gyrB genes respectively) in trans-complementation assays. For this purpose, we mobilized the plasmid clones into the E.coli gyr mutant strains. The resulting transformants were now nalidixic acid sensitive and a-arteether resistant. This constituted the direct evidence supporting our observation that DNA gyrase enzyme alone is involved in conferring a-arteether sensitivity to E.coli strain. […] DNA gyrase enzyme is essential for the bacterial growth. This enzyme transiently breaks the DNA strands and introduces negative superhelical turns in an ATP-dependent process. The E.coli DNA gyrase enzyme is a tetramer with two subunits A and B. These two subunits are nalidixic acid and coumermycin sensitive respectively (U.S. Pat. No. 6,127,405 and a co-pending patent).
as §1

[22] = test system: E. coli mutant strain AR 9 CA8014; test: Phenotype of revertant (resistance or sensitivity); assay type: cell-based, Escherichia coli; set-up: key: R: resistance; S: sensitivity; conditions: gyrA AAC-GAC(259), Asn-Asp 87
Description: as §1, §2

[23] = test system: E.coli gyr mutant strains transformed with pMK 90 and pMK47 (functional gyr A and gyrB genes); test: Trans-complementation assay; assay type: cell-based, Escherichia coli; conditions: gyr mutant strains carrying pMK 90 / pMK47
Experimental: as §5, with “This enzyme transiently breaks the DNA strands and introduces negative superhelical turns in an ATP-dependent process. The E.coli DNA gyrase enzyme is a tetramer with two subunits A and B. These two subunits are nalidixic acid and coumermycin sensitive respectively (U.S. Pat. No. 6,127,405 and a co-pending patent).” left out

[24] = test system: E.coli strain CA 8000 (Gyr+); test: Phenotype of strain (resistance or sensitivity); assay type: cell-based, Escherichia coli; conditions: E.coli CA 8000 (Gyr+)
Experimental: as §5, with “This enzyme transiently breaks the DNA strands and introduces negative superhelical turns in an ATP-dependent process. The E.coli DNA gyrase enzyme is a tetramer with two subunits A and B. These two subunits are nalidixic acid and coumermycin sensitive respectively (U.S. Pat. No. 6,127,405 and a co-pending patent).” left out

[25] = test system: E. coli CA8003; test: Phenotype of strain (resistance or sensitivity); assay type: cell-based, Escherichia coli; set-up: key: R: resistance; S: sensitivity; conditions: gyrA GAC-GGC(260), Asp-Gly 87
Description: as §4, §1

[26] = test system: E. coli CA8009; test: Phenotype of strain (resistance or sensitivity); assay type: cell-based, Escherichia coli; set-up: key: R: resistance; S: sensitivity; conditions: gyrA TCG-TTG(248), Ser-Leu 83
Description: as §4, §1

[27] = test system: E. coli CA8006; test: Phenotype of strain (resistance or sensitivity); assay type: cell-based, Escherichia coli; set-up: key: R: resistance; S: sensitivity; conditions: gyrA TCG-TTG(248), Ser-Leu 83
Description: as §4, §1

[28] = test system: E. coli CA8005; test: Phenotype of strain (resistance or sensitivity); assay type: cell-based, Escherichia coli; set-up: key: R: resistance; S: sensitivity; conditions: gyrA GAC-GGC(260), Asp-Gly 87
Description: as §4, §1

[29] = test system: E. coli CA8007; test: Phenotype of strain (resistance or sensitivity); assay type: cell-based, Escherichia coli; set-up: key: R: resistance; S: sensitivity; conditions: gyrA TCG-TTG(248), Ser-Leu 83
Description: as §4, §1

[30] = test system: E. coli CA8010; test: Phenotype of strain (resistance or sensitivity); assay type: cell-based, Escherichia coli; set-up: key: R: resistance; S: sensitivity; conditions: gyrA TCG-TTG(248), Ser-Leu 83
Description: as §4, §1

[31] = test system: E. coli CA8001; test: Phenotype of strain (resistance or sensitivity); assay type: cell-based, Escherichia coli; set-up: key: R: resistance; S: sensitivity; conditions: gyrA GGT-TGT(241), Gly-Cys 81
Description: as §4, §1

[32] = test system: E. coli CA8002; test: Phenotype of strain (resistance or sensitivity); assay type: cell-based, Escherichia coli; set-up: key: R: resistance; S: sensitivity; conditions: gyrA GGT-TGT(241), Gly-Cys 81
Description: as §4, §1

[33] = test system: E. coli ET8000; test: Phenotype of strain (resistance or sensitivity); assay type: cell-based, Escherichia coli; set-up: key: R: resistance; S: sensitivity; conditions: gyrA GAC-AAC(259), Asp-Asn 87
Description: as §1

[34] = test system: E. coli DH5α; test: Phenotype of strain (resistance or sensitivity); assay type: cell-based, Escherichia coli; set-up: key to Phenotype: R: resistance; S: sensitivity
Experimental: As a result of this mutation, the said strain is also resistant to a drug called nalidixic acid.
as §5, §1

Row | Structure (SMILES) | MIC [7] [µg/mL] | MIC [8] [µg/mL] | MIC [9] [µg/mL] | MIC [10] [µg/mL] | MIC [12] [µg/mL] | MIC [13] [µg/mL] | MIC [14] [µg/mL] | MIC [15] [µg/mL] | MIC [16] [µg/mL] | MIC [17] [µg/mL] | MIC [18] [µg/mL] | MIC [19] [µg/mL] | MIC [20] [µg/mL] | also measured
1 | CCn1cc(C(=O)O)c(=O)c2cc(F)c(N3CCNC(C)C3)c(F)c21 (stereo not shown) [Lomefloxacin] | > 2 | < 0.05 | 0.5 (≈ 1.42 µM) | < 0.5 | 0.5 (≈ 1.42 µM) | 1.5 (≈ 4.27 µM) | 1.5 (≈ 4.27 µM) | 1.5 (≈ 4.27 µM) | 2.5 (≈ 7.12 µM) | 1.5 (≈ 4.27 µM) | 1.5 (≈ 4.27 µM) | 1.5 (≈ 4.27 µM) | 1.5 (≈ 4.27 µM) | Phenotype [1]: S; Phenotype [2]: S; Phenotype [3]: S; Phenotype [4]: S; Phenotype [5]: S; Phenotype [6]: S; Phenotype [11]: R
2 | CCn1cc(C(=O)O)c(=O)c2ccc(C)nc21 [Nalidixic acid] | 100 (≈ 431 µM) | 2 (≈ 8.61 µM) | 50 (≈ 215 µM) | 20 (≈ 86.1 µM) | 150 (≈ 646 µM) | 100 (≈ 431 µM) | 150 (≈ 646 µM) | 150 (≈ 646 µM) | 150 (≈ 646 µM) | 100 (≈ 431 µM) | 100 (≈ 431 µM) | 150 (≈ 646 µM) | 100 (≈ 431 µM) | Sensitivity or resistance of the strain (words) ([21]; E.coli NK 5819 (GyrA mutant)): resistant; Phenotype ([21]; NK5819, gyrA GAC-TAC(259), Asp-Gly 87): R; Phenotype [22]: S; Sensitivity or resistance of transformants [23]: sensitive; Sensitivity or resistance of the strain (words) [24]: sensitive; Phenotype [25]: R; Phenotype [26]: R; Phenotype [27]: R; Phenotype [28]: R; Phenotype [29]: R; Phenotype [30]: R; Phenotype [31]: R; Phenotype [32]: R; Phenotype [33]: R; Phenotype ([34]; DH5α, gyrA GAC-AAC(259), Asp-Asn 87): R; Sensitivity or resistance of the strain (words) ([34]; E.coli DH5a (gyrA 96; Asp87Asn)): resistant
